Measured values reported in patent US20090197856A1, “ANTIVIRAL COMPOUNDS” (Genelabs Technologies, Inc., priority 2007, published 2009).

Target: T1, NS5B (Hepatitis C virus genotype 1b, UniProt Q9WMX2)
T1 construct: 3 nM NS5B, 20 nM polyC RNA template
Test: Polymerase assay, incorporation of radiolabeled GTP with biotinylated oligoG13 primer and polycytidylic acid RNA template
Format: biochemical
Settings: polyC RNA template, biotin-oligoG13 primer, tritiated GTP, 3 nM NS5B, 30° C., 2 hours
Description: The polymerase activity was also assayed by measuring incorporation of radiolabeled GTP into an RNA product using a biotinylated oligoG13 primer with a polycytidylic acid RNA template. Typically, the assay mixture (40 μL) contains 50 mM HEPES (pH 7.3), 2.5 mM magnesium acetate, 2 mM sodium chloride, 37.5 mM potassium acetate, 5 mM DTT, 0.4 U/mL RNasin, 2.5% glycerol, 3 nM NS5B, 20 nM polyC RNA template, 20 nM biotin-oligoG13 primer, and 0.2 μM tritiated guanosine triphosphate. Test compounds were initially dissolved and diluted in 100% DMSO and further diluted into aqueous buffer, producing a final concentration of 5% DMSO. Typically, compounds were tested at concentrations between 0.2 nM and 10 μM. Reactions were started with addition of tritiated guanosine triphosphate and allowed to continue at 30° C. for 2 hours. Reactions were quenched with 100 μL stop buffer containing 10 mM EDTA and 1 μg/mL streptavidin-coated scintillation proximity beads. Reaction plates were incubated at 4° C. for 10 hours and then incorporation of radioactivity was determined by scintillation counting. The table below lists the IC50 values of compounds determined using this procedure.

T1 sequence (Q9WMX2 2420-3010): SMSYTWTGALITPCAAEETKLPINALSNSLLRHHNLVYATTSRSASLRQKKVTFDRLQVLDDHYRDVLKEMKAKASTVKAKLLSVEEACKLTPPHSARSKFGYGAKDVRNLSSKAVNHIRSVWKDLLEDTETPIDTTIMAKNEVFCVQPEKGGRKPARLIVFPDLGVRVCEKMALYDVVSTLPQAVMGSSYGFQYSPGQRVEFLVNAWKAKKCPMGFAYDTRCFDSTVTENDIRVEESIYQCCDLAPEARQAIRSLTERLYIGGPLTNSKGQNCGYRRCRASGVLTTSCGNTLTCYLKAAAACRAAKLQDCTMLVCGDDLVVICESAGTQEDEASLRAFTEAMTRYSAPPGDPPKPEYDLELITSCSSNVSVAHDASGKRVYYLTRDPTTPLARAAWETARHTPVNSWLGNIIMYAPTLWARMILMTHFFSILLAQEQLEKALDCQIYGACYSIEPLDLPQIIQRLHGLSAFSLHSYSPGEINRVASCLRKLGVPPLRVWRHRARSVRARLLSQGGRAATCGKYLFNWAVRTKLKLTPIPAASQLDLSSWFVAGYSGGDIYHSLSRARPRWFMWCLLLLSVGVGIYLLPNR

Structure (SMILES) | IC50 [nM]
CCN(C)Cc1c(C(=O)N(C)Cc2ccccc2)n2c3c(cccc13)-c1c(C3CCCCC3)c3ccc(C(=O)O)cc3n1CCC2 [Compound 323] | 9
CCN(C)Cc1c(C(=O)N2CCC(N(C)C)CC2)n2c3c(cccc13)-c1c(C3CCCCC3)c3ccc(C(=O)O)cc3n1CCC2 [Compound 324] | 6
CCN(C)Cc1c(C(=O)N2CCN(C(C)=O)CC2)n2c3c(cccc13)-c1c(C3CCCCC3)c3ccc(C(=O)O)cc3n1CCC2 [Compound 325] | 7
CCN(C)Cc1c(C(=O)N2CC[C@@H](NC(C)=O)C2)n2c3c(cccc13)-c1c(C3CCCCC3)c3ccc(C(=O)O)cc3n1CCC2 [Compound 326] | 6

Other lines, results leading:

IC50 [nM] | Structure (SMILES)
5.05 | NC1CCN2CCn3c(c(C4CCCCC4)c4ccc(C(=O)O)cc43)-c3ccc(F)c1c32 (stereo not drawn) [Compound 448]
200 | CC1(C)C(=O)N2CCn3c(c(C4CCCCC4)c4ccc(C(=O)O)cc43)-c3cccc(c32)[C@@H]1N [Compound 496, (4S)-4-amino-15-cyclohexyl-5,5-dimethyl-6-oxo-5,6,8,9-tetrahydro-4H-indolo[1′,2′:4,5][1,4]diazepino[6,7,1-ij]quinoline-12-carboxylic Acid]
23 | CC1(C)CN2CCn3c(c(C4CCCCC4)c4ccc(C(=O)O)cc43)-c3cccc(c32)[C@@H]1N [Compound 497, (4R)-4-amino-15-cyclohexyl-5,5-dimethyl-5,6,8,9-tetrahydro-4H-indolo[1′,2′:4,5][1,4]diazepino[6,7,1-ij]quinoline-12-carboxylic Acid]
20 | CC1(C)C(=O)N2CCn3c(c(C4CCCCC4)c4ccc(C(=O)O)cc43)-c3cccc(c32)[C@H]1N [Compound 498]
4 | CC1(C)CN2CCn3c(c(C4CCCCC4)c4ccc(C(=O)O)cc43)-c3cccc(c32)[C@H]1N [Compound 499]
